The values below are quoted from earlier work in the Kinase Knowledgebase extract (Sharma et al. 2016).

pIC50: −log10 of the molar value.

In general, pIC50 refers to the negative decadic logarithm of the IC50, by convention in mol/L.

EGFR, sequence (P00533 whole entry, looked up): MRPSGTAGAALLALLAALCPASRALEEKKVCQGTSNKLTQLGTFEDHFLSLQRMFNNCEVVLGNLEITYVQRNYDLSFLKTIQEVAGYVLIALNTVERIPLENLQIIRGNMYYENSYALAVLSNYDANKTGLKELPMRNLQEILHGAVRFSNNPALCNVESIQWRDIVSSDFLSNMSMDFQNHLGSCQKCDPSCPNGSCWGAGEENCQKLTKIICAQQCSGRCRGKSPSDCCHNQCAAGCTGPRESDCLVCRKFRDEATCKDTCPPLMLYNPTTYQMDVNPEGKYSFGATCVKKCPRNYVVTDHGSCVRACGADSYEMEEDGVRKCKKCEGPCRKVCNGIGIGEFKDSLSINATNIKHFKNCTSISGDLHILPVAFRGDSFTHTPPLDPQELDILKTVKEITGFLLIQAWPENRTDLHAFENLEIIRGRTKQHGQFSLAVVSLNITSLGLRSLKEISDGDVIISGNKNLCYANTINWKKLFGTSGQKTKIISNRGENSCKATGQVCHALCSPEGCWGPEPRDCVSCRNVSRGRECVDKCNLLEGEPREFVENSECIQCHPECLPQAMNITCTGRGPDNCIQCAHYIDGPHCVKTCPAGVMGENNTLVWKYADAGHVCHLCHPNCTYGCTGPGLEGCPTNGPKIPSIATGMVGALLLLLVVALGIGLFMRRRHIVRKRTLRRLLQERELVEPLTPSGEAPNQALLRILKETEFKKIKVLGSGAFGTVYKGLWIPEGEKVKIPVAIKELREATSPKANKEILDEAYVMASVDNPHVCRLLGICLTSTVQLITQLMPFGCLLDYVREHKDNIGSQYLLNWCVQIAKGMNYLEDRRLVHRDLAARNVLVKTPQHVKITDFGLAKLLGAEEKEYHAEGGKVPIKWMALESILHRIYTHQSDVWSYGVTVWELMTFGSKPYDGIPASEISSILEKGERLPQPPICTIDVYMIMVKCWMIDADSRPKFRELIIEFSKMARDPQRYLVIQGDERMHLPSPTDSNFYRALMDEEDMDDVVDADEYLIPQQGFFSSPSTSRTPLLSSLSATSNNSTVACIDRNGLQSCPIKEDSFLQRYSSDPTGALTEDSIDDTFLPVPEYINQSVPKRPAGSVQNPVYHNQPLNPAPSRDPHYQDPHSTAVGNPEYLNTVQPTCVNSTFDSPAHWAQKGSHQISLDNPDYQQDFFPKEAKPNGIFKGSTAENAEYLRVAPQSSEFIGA

This data set concerns the target EGFR (UniProt P00533).
Take `COc1cc2c(Nc3cccc(C)c3F)ncnc2cc1OCC1CCNCC1`: the pIC50 is 6.30.
For `COc1cc2c(Nc3cccc(C#N)c3F)ncnc2cc1OC/C=C/CN1CCCC1`, the pIC50 was 6.10.
For `COc1cc2c(Nc3cc(F)cc(Cl)c3F)ncnc2cc1OCC1CCN(C)CC1`, the pIC50 is 6.35.
For the molecule `[O-][N+]1(CCCNc2cc3ncnc(Nc4cccc(Br)c4)c3cn2)CCOCC1`, the pIC50 is 9.15.
On to `c1ccc(Nc2ncnc3[nH]c4ccccc4c23)cc1`, for which the pIC50 is 5.16.
As to `COc1cc2c(Nc3cccc(Br)c3F)ncnc2cc1OCCCN1CCN(C)CC1`, the pIC50 was 7.00.
With `Clc1ncc2ncnc(Nc3cccc(Br)c3)c2n1`, the pIC50 is 7.09.
For the molecule `CN(CC(O)CO)c1cc2ncnc(Nc3cccc(Br)c3)c2cn1` (stereo unspecified), the pIC50 is 8.52.
Take `CNC(=O)c1cc2c(Nc3cccc(Cl)c3)ncnc2[nH]1`: the pIC50 was 8.52.
As to `Cc1[nH]c2ncnc(NCc3cccc(Cl)c3)c2c1C`, the pIC50 was 5.97.
With `COc1cc2c(Nc3cccc(Br)c3F)ncnc2cc1OCC1CCNCC1`, the pIC50 was 6.70.
Turning to `CN(C)CCCCCNc1cc2ncnc(Nc3cccc(Br)c3)c2cn1`, the pIC50 was 8.08.
Regarding `COc1cc2c(Nc3cccc(Cl)c3F)ncnc2cc1OCCN1CCOCC1`, the pIC50 was 6.40.
Consider `COc1cc2c(Nc3cccc(Cl)c3F)ncnc2cc1OCCCN1CCCC1`, for which the pIC50 is 7.00.
For the molecule `COc1cc2c(Nc3cccc(Br)c3F)ncnc2cc1OC[C@@H]1CCCN(C)C1`, the pIC50 was 6.70.
Turning to `COc1cc2c(Nc3cccc(Cl)c3F)ncnc2cc1OCCN(C)c1ccncc1`, the pIC50 is 6.52.
In the case of `COc1cc2c(Nc3cc(F)cc(Cl)c3F)ncnc2cc1OCC1CCNCC1`, the pIC50 is 6.30.
Take `COc1cc2c(Nc3cccc(Cl)c3F)ncnc2cc1OC/C=C/CN1CCCC1`: the pIC50 is 7.05.
In the case of `CN(CC(=O)O)c1cc2ncnc(Nc3cccc(Br)c3)c2cn1`, the pIC50 was 7.82.
For the molecule `COc1cc2c(Nc3cccc(Cl)c3F)ncnc2cc1OCCC1CCN(C)CC1`, the pIC50 is 6.52.
Consider `OCCNc1cc2ncnc(Nc3cccc(Br)c3)c2cn1`, for which the pIC50 was 9.70.
For the molecule `COc1cc2c(Nc3cccc(Br)c3F)ncnc2cc1OC/C=C/CN1CCCC1`, the pIC50 was 7.00.
Consider `COc1cc2c(Nc3cccc(Br)c3F)ncnc2cc1OC[C@H]1CCCN(C)C1`, for which the pIC50 is 7.00.
As to `CNc1cc2ncnc(Nc3cccc(Br)c3)c2cn1`, the pIC50 is 10.00.
In the case of `OCCN(CCO)CCNc1cc2ncnc(Nc3cccc(Br)c3)c2cn1`, the pIC50 is 8.05.
In the case of `CN(CCO)c1cc2ncnc(Nc3cccc(Br)c3)c2cn1`, the pIC50 was 8.70.
With `COc1cc2c(Nc3cccc(C)c3F)ncnc2cc1OCC1CCN(C)CC1`, the pIC50 was 6.00.
As to `O=C(O)c1ccc(-c2cc3c(Nc4cccc(Cl)c4)ncnc3[nH]2)cc1`, the pIC50 was 9.00.
As to `CN(CC(O)C(O)C(O)C(O)CO)c1cc2ncnc(Nc3cccc(Br)c3)c2cn1` (stereo unspecified), the pIC50 is 8.52.
Take `Oc1ccc(-c2cc3c(Nc4cccc(Cl)c4)ncnc3[nH]2)cc1`: the pIC50 was 8.52.
For the molecule `CN(C)c1cc2ncnc(Nc3cccc(Br)c3)c2cn1`, the negative-log IC50 (pIC50) was 10.05.
Regarding `COc1cc2c(Nc3cccc(Br)c3F)ncnc2cc1OCCC1CCNCC1`, the pIC50 is 6.70.
For `CNc1ncc2ncnc(Nc3cccc(Br)c3)c2n1`, the pIC50 is 9.12.
For the molecule `Nc1cccc(-c2cc3c(Nc4cccc(Cl)c4)ncnc3[nH]2)c1`, the pIC50 is 8.41.
`COc1cc2c(Nc3ccc(O)c(Cl)c3F)ncnc2cc1OCC1CCN(C)CC1`: the pIC50 was 7.00.
Take `O=C(O)CCCNc1cc2ncnc(Nc3cccc(Br)c3)c2cn1`: the pIC50 is 9.70.
Regarding `COc1ccc(-c2cc3c(Nc4cccc(Cl)c4)ncnc3[nH]2)cc1`, the pIC50 was 7.82.
As for `Brc1cccc(Nc2ncnc3cc(NCCN4CCOCC4)ncc23)c1`, the pIC50 is 8.52.
On to `COc1cc2c(Nc3cccc(Cl)c3F)ncnc2cc1OCCCN1CCOCC1`, for which the pIC50 is 7.00.
Consider `CN(C)CCCNc1cc2ncnc(Nc3cccc(Br)c3)c2cn1`, for which the pIC50 was 8.10.
Turning to `NNc1cc2ncnc(Nc3cccc(Br)c3)c2cn1`, the pIC50 is 8.15.
For `COc1cc2c(Nc3cccc(Cl)c3F)ncnc2cc1OCCN1CCN(C)CC1`, the pIC50 is 6.70.
On to `COc1cc2c(Nc3cccc(Cl)c3F)ncnc2cc1OCCCN1CCN(C)CC1`, for which the pIC50 is 7.12.
Regarding `COCCOc1cc2ncnc(Nc3cccc(Cl)c3F)c2cc1OC`, the pIC50 is 7.00.
As to `OCC(O)C(O)C(O)C(O)CNc1cc2ncnc(Nc3cccc(Br)c3)c2cn1` (stereo unspecified), the pIC50 is 8.40.
In the case of `COc1cc2c(Nc3ccc(O)c(C)c3F)ncnc2cc1OCC1CCN(C)CC1`, the pIC50 was 6.52.
For `COc1cc2c(Nc3cc(F)cc(Br)c3F)ncnc2cc1OCC1CCNCC1`, the pIC50 was 6.35.
As to `COc1cc2c(Nc3cc(F)cc(Br)c3F)ncnc2cc1OCC1CCN(C)CC1`, the pIC50 is 6.52.
As for `COc1cc2c(Nc3cccc(Cl)c3F)ncnc2cc1OC[C@@H]1CCCN(C)C1`, the pIC50 is 7.00.
Regarding `O=S(=O)(O)CCNc1cc2ncnc(Nc3cccc(Br)c3)c2cn1`, the pIC50 is 9.00.
With `Nc1ccc(-c2cc3c(Nc4cccc(Cl)c4)ncnc3[nH]2)cc1`, the pIC50 is 8.52.
Take `Clc1cccc(Nc2ncnc3[nH]c(-c4ccccn4)cc23)c1`: the pIC50 is 8.15.
For `Cc1cccc(Nc2ncnc3cc(NCCCn4ccnc4)ncc23)c1`, the pIC50 was 8.47.
Turning to `COc1cc2c(Nc3cccc(Cl)c3F)ncnc2cc1OCC1CCNCC1`, the pIC50 is 6.52.
On to `COc1cc2c(Nc3cccc(Br)c3F)ncnc2cc1OCCC1CCN(C)CC1`, for which the pIC50 was 6.70.
In the case of `CNc1cc2ncnc(Nc3cccc(C)c3)c2cn1`, the negative logarithm of the IC50 (pIC50) is 9.00.
